According to patent US20090004683A1, “Indicator Agent for Noninflammatory Stress Response and Use Thereof” (priority 2004, published 2009):

How the values were obtained:
IL-18 = assay: Plasma IL-18 level in restraint stress mice (ELISA); assay type: in vivo, mouse; details: given i.p. during restraint (Ac-YVAD-CHO 200 μM/50 μl, Z-FA-fmk 100 μM/50 μl, SB-203580 100 μg, SOD-1 20 U, DPI 30 μg)
Method: (§1) For restraint stress, each mouse was kept in a restrainer (a round plastic tube 27 mm in diameter) for 1, 3 or 6 hours, and IL-18 levels were measured. Regarding the analysis of IL-6, each mouse was restrained as described above, and then housed in the starting cage for 6 hours, after which a measurement was performed.
(§2) After restraint, each mouse was anesthetized with diethyl ether, and blood was drawn into an EDTA-containing tube. Plasma was separated by centrifugation at 4° C. and 10000×g for 10 minutes, and stored at −80° C. IL-18 and IL-6 were analyzed by ELISA using Quantikine™ immunoassay kit (R&D Systems) and OptEIA™ (BD-Pharmingen), respectively.
The anti-ACTH antiserum (50 μl, 1:1), dexamethasone (1 ng/50 μl PBS(−)) or the anti-IL-18 antibody (50 μl, 1:1) was administered intraperitoneally to each mouse; after 10 minutes elapsed, the animal was kept in a restraint tube for 6 hours. Synthetic ACTH (250 μg/50 μl PBS(−)) was injected to the left leg; after 6 hours elapsed, the mice were subjected to the experiment.
(§3) Each mouse was kept in a restrainer for 1 hour, and Ac-YVAD-CHO (200 μM/50 μl PBS(−)), Z-FA-fmk (100 μM/50 μl PBS(−)) and SB-203580 (100 μg/50 μl PBS(−) per mouse) were administered intraperitoneally. 1 and 3 hours after the start of restraint, SOD-1 (20 U) and DPI (30 μg) were administered intraperitoneally to the mouse, and samples were analyzed by Western blotting.

caspase-1 = target: T1, caspase-1 (Mus musculus, UniProt P29452); assay: Caspase-1 activity in the adrenal of restraint stress mice (Ac-YVAD-MCA fluorescent substrate); assay type: in vivo; details: given i.p. during restraint
T1 construct: from tissue; host or cells: mouse adrenal (homogenate)
T1 sequence (P29452 119-296 limits assumed): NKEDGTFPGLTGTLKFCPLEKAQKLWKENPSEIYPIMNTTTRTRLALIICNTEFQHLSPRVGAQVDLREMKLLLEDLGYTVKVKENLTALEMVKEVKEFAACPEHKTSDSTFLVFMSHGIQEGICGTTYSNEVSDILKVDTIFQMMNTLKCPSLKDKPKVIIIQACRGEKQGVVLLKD
T1 sequence (P29452 315-402 limits assumed): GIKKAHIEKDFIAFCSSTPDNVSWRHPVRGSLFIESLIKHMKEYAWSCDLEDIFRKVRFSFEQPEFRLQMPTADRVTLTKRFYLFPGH
Method: as §3
Caspase-1 activity in the adrenal was measured using a caspase assay kit (manufactured by BD-Pharmingen). Describing briefly, a homogenate of adrenal tissue was incubated with Ac-YVAD-MCA (acetyl-L-tyrosyl-L-valyl-L-alanyl-L-aspartic acid 4-methyl-coumaryl-7-amide), which is a fluorescent substrate for caspase-1, and the MCA leaving from the aforementioned substrate was measured using a fluorescence plate reader (excitation wavelength 380 nm, irradiation wavelength 420-460 nm).

[1] = tested on: phosphorylated (Thr180/Tyr182) P38 MAP kinase; assay: Phosphorylated P38MAP kinase in the adrenal of restraint stress mice (Western blotting); assay type: in vivo, mouse; details: SOD-1 20 U i.p. 1 and 3 hours after start of restraint, FIG. 4A
Method: as §3
Western blot analysis of IL-18 and phosphorylated P38MAP kinase in adrenal tissue was performed as described below. The adrenal tissue was homogenized in an immunoprecipitation (IP) buffer solution (50 mM Tris pH 7.4, 150 mM NaCl, 0.5% NP-40 and 0.5% sodium deoxycholate) containing a protease inhibitor mixture (manufactured by Roche Diagnostics) using a Polytron homogenizer. The homogenate obtained (100 μg protein) was pre-clarified using protein A/G agarose (Exalpha Biologicals, Inc.), incubated with the anti-mouse IL-18 monoclonal antibody or the anti-phosphorylated (Thr180/Tyr182) P38 MAP kinase antibody and protein A/G agarose (50 μl), and centrifuged (at 13000×g for 25 minutes, 4° C.). The precipitate was boiled, and the adrenal protein was recovered, electrophoresed in 10-20% SDS-polyacrylamide gradient gel, and electrically transferred to a Hybond ECL (manufactured by Amersham) nitrocellulose membrane. The aforementioned membrane was incubated with an antibody (IL-18, phosphorylated (Thr180/Tyr182) P38 MAP kinase, caspase-1 or caspase-11), and the reacted protein was detected using an ECL plus system (manufactured by Amersham biosciences). Procaspase-11 and activated P38 MAP kinase were quantified using a Science Lab 99 image analysis system (manufactured by Fujifilm).

IL-6 = assay: Plasma IL-6 level in stress-loaded wild type mice (ELISA); assay type: in vivo, mouse; details: stress-loaded WT mice; FIG. 5B
Method: as §1, §2
Using IL-18-deficient mice, the relationship between IL-6, which is another stress-related cytokine, and IL-18, was examined. Without stress, IL-6 was undetectable in WT and IL-18 KO, but after 3 hours of stress loading, the IL-6 level was 230 pg/ml in WT and 25 pg/ml in IL-18 KO (FIG. 5A). After liberation from the stress, plasma IL-6 was kept at about 80 pg/ml in WT, but decreased to 5 pg/ml in IL-18 KO (FIG. 5A). Treatment with YVAD-CHO, SOD and anti-IL-18 antibody 70% inhibited the stress-induced increase in plasma IL-6 level in WT (FIG. 5B).

[2] = tested on: Primary culture human skin keratinocytes; assay: IL-18 release from keratinocytes with paraquat stimulation; assay type: cell-based; details: keratinocytes, 1 μM paraquat 15 minutes; SOD 1-20 U/ml or water-soluble vitamin E 100 nM-10 mM/ml
Method: Primary culture human skin keratinocytes (keratinocytes) were cultured in a basal medium for keratinocytes contained in petri dishes for cell culture 6 cm in diameter at 1.0-2.0×10^6/dish. This was cultured in the aforementioned medium containing 1 μM of paraquat, which is an active oxygen generator, for 15 minutes, after which the medium was exchanged with a paraquat-free medium, and the cells were further cultured for 1 hour, after which the medium was collected, and the concentration of IL-18 protein in the medium was measured.

Brain microglia = assay: IL-18 release from microglia with paraquat stimulation; assay type: cell-based, mouse; details: microglia, 100 nM paraquat 1 hour; SOD 1-20 U/ml or water-soluble vitamin E 100 nM-10 mM/ml
Method: Brain microglia isolated from the mouse neonatal brain by the method of Hassan et al. (Hassan N F, Rifat S, Campbell D E, McCawley L J, Douglas S D. J. Leukoc Biol. 1991 July; 50(1):86-92) were cultured at 1.5-2.0×10^6/ml. This was cultured in Dulbecco's minimum essential medium containing 100 nM of paraquat, which is an active oxygen generator, for 1 hour, after which the medium was exchanged with a paraquat-free medium. After further cultivation for 3 hours, the medium was collected, and the concentration of IL-18 protein in the medium was measured.

[3] = tested on: Primary culture human renal proximal tubular epithelial cells; assay: IL-18 release from renal tubular epithelial cells with paraquat stimulation; assay type: cell-based; details: renal tubular epithelial cells, 100 nM paraquat 15 minutes; SOD 1-20 U/ml or water-soluble vitamin E 100 nM-10 mM/ml
Method: Primary culture human renal proximal tubular epithelial cells (purchased from CAMBREX Company) were cultured in a basal medium for renal tubular cells: contents 10 μg/ml hEGF (recombinant human epithelial cell growth factor) 0.5 ml, 5 mg/ml insulin 0.5 ml, 0.5 mg/ml hydrocortisone 0.5 ml, FBS (fetal bovine serum) 2.5 ml, 0.5 mg/ml epinephrine 0.5 ml, 6.5 μg/ml triiodothyronine 0.5 ml, 10 mg/ml transferrin 0.5 ml, 50 mg/ml gentamycin, 50 μg/ml amphotericin-B 0.5 ml), in petri dishes for cell culture 6 cm in diameter at 1.0-2.0×10^6/dish. This was cultured in the aforementioned medium containing 100 nM of paraquat, which is an active oxygen generator, for 15 minutes, after which the medium was exchanged with the same but paraquat-free medium. After the cells were further cultured for 1 hour, the medium was collected, and the concentration of IL-18 protein in the medium was measured.

SOD: superoxide dismutase (SOD)-1 purchased from Sigma; active oxygen eliminator
stress-induced increase in plasma IL-18 level (IL-18): reduced | stress-induced increase in caspase-1 activity in the adrenal (caspase-1): reduced | inhibition of the phosphorylation of P38MAP kinase in the adrenal [1]: about 70% | inhibition of the stress-induced increase in plasma IL-6 level (IL-6): 70% | activation and release of IL-18 into the medium [2]: suppressed | activation and release of IL-18 into the medium (Brain microglia): suppressed | activation and release of IL-18 into the medium [3]: suppressed
